Data taken from patent publication US8071654B2, “Inhibitors of thromboxane formation and action” (priority 2000, dated 2011).

Key:
TX synthase = molecular target: T1, TX synthase (Homo sapiens, UniProt P24557); assay: collagen-evoked TxB2 (and HHT) formation in washed human platelets, HPLC; assay type: cell-based; conditions: for TX enzyme activity (% of control values, mean ± SD): n = 3, TxB2 and HHT
T1 construct: endogenous in cells; host or cells: washed human platelets
T1 sequence (P24557 1-533): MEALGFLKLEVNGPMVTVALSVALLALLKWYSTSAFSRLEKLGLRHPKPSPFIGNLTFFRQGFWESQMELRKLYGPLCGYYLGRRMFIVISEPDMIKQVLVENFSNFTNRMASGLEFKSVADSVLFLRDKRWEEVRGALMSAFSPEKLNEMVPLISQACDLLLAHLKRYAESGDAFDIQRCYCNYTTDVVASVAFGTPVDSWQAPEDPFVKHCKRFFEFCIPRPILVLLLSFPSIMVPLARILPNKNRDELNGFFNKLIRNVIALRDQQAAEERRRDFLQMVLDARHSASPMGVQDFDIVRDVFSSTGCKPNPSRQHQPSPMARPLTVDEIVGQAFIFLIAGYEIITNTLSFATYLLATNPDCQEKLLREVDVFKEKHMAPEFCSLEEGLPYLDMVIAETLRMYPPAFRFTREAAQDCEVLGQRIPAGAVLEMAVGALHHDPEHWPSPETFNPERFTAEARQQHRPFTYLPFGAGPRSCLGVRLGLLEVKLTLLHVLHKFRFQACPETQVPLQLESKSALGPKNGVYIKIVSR
Protocol: 0.5 ml of platelet suspension was added to siliconized glass tubes (four at a time) and heated with magnetic stirring to 37° for 1 min in a platelet aggregometer (PAP-4C). Either vehicle alone (ethanol, 1 μl) or hepoxilin analog was then added, followed two min later by agonist (collagen: 2 μg; PGH2: 100 ng/0.5 ml; U46619: 10 ng/0.5 ml or I-BOP: 2 ng/0.5 ml). The response was recorded for the next 5 min. In experiments where analysis of TxB2 and HHT were to be made by HPLC, the platelet suspension at the end of the experiment was diluted with ethyl acetate, 100 ng of prostaglandin B1 was added as internal standard, and the mixture was acidified to pH 3 with 0.1 N HCl. After centrifugation, the organic layer was separated, washed twice with water to neutrality, and evaporated to dryness. Half of the sample was taken and was resuspended in 1 ml ethyl acetate containing 20 μg ADAM reagent, and was left in the dark for 2 h (38). The solvent was then evaporated and the residue was acetylated with a solution of pyridine/acetic anhydride (3/1, v/v) during 16 h at 23°. The reagents were evaporated to dryness and the residue was resuspended in acetonitrile/water for HPLC analysis. In experiments where the conversion of tritiated PGH2 was to be monitored, the procedure described above was repeated with tritiated PGH2 instead of unlabeled PGH2. After extraction of the sample as described above, the radiolabeled compounds were analyzed by TLC. Dose response curves for varying amounts of test compounds were generated and the data expressed as % inhibition of collagen-induced platelet aggregation. Each point was investigated 5 times and statistical analysis of the data was carried out using Macintosh Statview statistical software.
Measurement of eicosanoids formed by platelets during treatment with collagen or the TP receptor agonists in the presence or absence of PBT-3 was carried out by HPLC after appropriate derivatization with a fluorescent tag (anthracyl diazomethane—ADAM) which forms a fluorescent ester (44). The method was adapted to measure the following compounds: TxB2, HHT, 12-HETE and M. The platelet suspension at the end of the experiment was mixed with ethyl acetate, 100 ng of prostaglandin B1 was added as internal standard and the mixture was acidified to pH 3 with 0.1 N HCl. After centrifugation, the organic layer was separated, washed twice with water to neutrality, and evaporated to dryness. The residue was resuspended in ethyl acetate and half of the sample was taken. It was diluted to 0.2 ml with ethyl acetate containing 20 μg ADAM reagent, and was left in the dark for 2 h. The solvent was then evaporated and the residue was acetylated with a solution of pyridine/acetic anhydride (3/1, v/v) for 16 h at 23°. The reagents were evaporated to dryness and the residue was resuspended in acetonitrile/water for HPLC analysis. Dose response curves for varying amounts of test compounds were generated and the data were expressed as % inhibition of agonist-induced platelet aggregation. Each point was investigated 3 times and statistical analysis of the data was carried out using Macintosh Statview statistical software.
Analysis of the anthryl (ADAM)-acetate derivative of TxB2, HHT and 12 HETE in the extracted platelet samples was carried out on a Hewlett Packard (1100 series) HPLC to which was attached a Shimadzu fluorescent detector (RF-10AXL). The detector was operated with excitation at 364 nm, emission at 411 nm. Chromatographic separation of the compound was carried out on a Waters C18 Novapak column (3.9×300 mm) using acetonitrile/water 80/20 at injection with a linear gradient to 100% acetonitrile during 20 min. TLC separation of tritiated platelet extracts was carried out on 20 cm silica gel G glass plates (Brinkman), with chloroform/methanol/acetic acid/water (90/9/1/0.65, v/v) as developing solvent in a paper lined glass tank at 23°. […]

TP receptor = molecular target: T2, TP receptor (Homo sapiens, UniProt P21731); assay: platelet aggregation evoked by I-BOP; assay type: cell-based; conditions: I-BOP 2 ng/0.5 ml; read-out: IC50 for inhibition of aggregation evoked by I-BOP
T2 construct: endogenous in cells; host or cells: washed human platelets
T2 sequence (P21731 1-343): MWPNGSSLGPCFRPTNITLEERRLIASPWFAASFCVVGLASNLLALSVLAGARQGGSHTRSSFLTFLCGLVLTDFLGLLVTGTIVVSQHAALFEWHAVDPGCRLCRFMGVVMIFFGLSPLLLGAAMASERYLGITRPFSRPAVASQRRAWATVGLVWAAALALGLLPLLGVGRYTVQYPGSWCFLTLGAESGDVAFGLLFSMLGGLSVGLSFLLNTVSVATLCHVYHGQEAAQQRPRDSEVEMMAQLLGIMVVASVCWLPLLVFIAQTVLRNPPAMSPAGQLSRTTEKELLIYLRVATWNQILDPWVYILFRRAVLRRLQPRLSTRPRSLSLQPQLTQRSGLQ
Protocol: Venous blood was obtained from healthy human subjects who had not taken NSAID's for at least two weeks. Blood was drawn into plastic syringes containing ACD. It was immediately centrifuged at 23° at 200×g for 15 min. The platelet rich plasma was transferred into fresh plastic tubes and centrifuged at 400×g for 5 min. The supernatant was discarded and the platelet sediment was resuspended in fresh medium containing NaCl (137 mM), KCl (1 mM), NaH2PO4, glucose (5.5 mM), HEPES (20 mM) and CaCl2 (1 mM) and allowed to stand at room temperature for 30 min. A platelet count was made, which determined the volume of platelet suspension needed to make up 350×10^6 cells for each measurement. The aliquot was diluted with medium to make 0.5 ml/assay/cuvette. […]
0.5 ml of platelet suspension was added to siliconized glass tubes (four at a time) and heated with magnetic stirring to 37° for 1 min in a platelet aggregometer (PAP-4C). […] The response was recorded for the next 5 min. […] In experiments where the conversion of tritiated PGH2 was to be monitored, the procedure described above was repeated with tritiated PGH2 instead of unlabeled PGH2. After extraction of the sample as described above, the radiolabeled compounds were analyzed by TLC. Dose response curves for varying amounts of test compounds were generated and the data expressed as % inhibition of collagen-induced platelet aggregation. […]

CCCCC/C=C\CC1CC1[C@@H](O)/C=C\C/C=C\CCCC(=O)OC (stereo partly drawn) [PBT-3, 10(S)-hydroxy-11,12-cyclopropyl-eicosa-5Z,8Z,14Z-trienoic acid methyl ester]
TX enzyme activity (% of control values, mean ± SD) (TX synthase; PBT-3 0.05 μM): 94.2 ± 15.2^NS % of control | TX enzyme activity (% of control values, mean ± SD) (TX synthase; PBT-3 0.30 μM): 65.7 ± 6.0 % of control | TX enzyme activity (% of control values, mean ± SD) (TX synthase; PBT-3 0.60 μM): 41.0 ± 4.7 % of control | TX enzyme activity (% of control values, mean ± SD) (TX synthase; PBT-3 3.00 μM): 29.9 ± 6.7 % of control | inhibition of TxB2 formation in platelets, in words (TX synthase; Table 1, last column): significantly inhibited | IC50 (TX synthase; washed human platelets, read-out: IC50 for block of collagen-evoked formation of thromboxane): 800 nM | IC50 (TP receptor): 60 nM
